Reference: patent US20230348495A1, “A COMPOUND HAVING INHIBITORY ACTIVITY AGAINST KRAS G12D MUTATION” (TAIHO PHARMACEUTICAL CO., LTD., priority 2019, published 2023)

Legend:
[1] = test system: KRAS-G12D mutant cell line (A-427); experiment: Growth inhibition activity on KRAS-G12D mutant cell line (A-427), CellTiter-Glo 3D; type: cell-based; conditions: Homo sapiens, 72 h, A-427 cells, 3-day culture with compound, read-out: A427 CTX IC50
Experimental: Test Example 2: A measurement test of growth inhibition activity on KRAS-G12D mutant cell line (A-427) (in vitro) A-427 cells (ATCC, Cat #: HTB-53), which are a KRAS-G12D mutant human lung cancer cell line, were suspended in a 10% fetal bovine serum-containing E-MEM medium (manufactured by Fujifilm Wako Pure Chemical Corporation). The cell suspension was seeded into each well of a 384-well U bottom microplate and cultured in an incubator containing 5% CO2 gas at 37° C. for 1 day.
The compound of the present invention was dissolved in DMSO, and the test compound was diluted with DMSO to give a concentration 500 times the final concentration. The solution of the test compound in DMSO was diluted with the medium used for suspending cells and added to each well of the cell-culture plate to give a DMSO final concentration of 0.2%, followed by culture in an incubator containing 5% CO2 gas at 37° C. for another 3 days. The cell count after a 3-day culture in the presence of the compound was measured using CellTiter-Glo 3D Reagent (manufactured by Promega Corporation).
All wells were added with CellTiter-Glo 3D Reagent and mixed for 10 minutes. 30 minutes after mixing, luminescence was measured by a plate reader. The growth inhibition rate was calculated from the following equation, and the concentration of the test compound at which 50% inhibition was achieved (IC50 (μM)) was determined.
Growth Inhibition Rate(%)=(C−T)/(C)×100
T: the emission intensity in a well into which a test compound was added.
C: the emission intensity in a well into which a test compound was not added.

KRAS G12D = KRAS G12D (Homo sapiens (Human), UniProt P01116, G12D); experiment: Inhibitory activity on KRAS G12D nucleotide (GDP-GTP) exchange reaction in vitro (SOS1-dependent, BODIPY FL GDP); type: biochemical; conditions: BODIPY FL GDP-bound KRAS G12D, compound 25° C. 1 hour, then SOS1 and GMPPNP 30 minutes
From the text: Test Example 1: Evaluation of inhibitory activity of compounds on KRAS G12D nucleotide (GDP-GTP) exchange reaction in vitro
Recombinant KRAS G12D (conjugated N-terminus His6-tag, TEV protease cleavage site and KRAS G12D residues 1-169 (SEQ ID NO: 1), prepared by the method described as below) and cleaved recombinant SOS1 (residues 564-1049(SEQ ID NO: 2), prepared by the method as below) proteins were expressed in E. coli and purified by affinity chromatography.
To prepare the recombinant KRAS G12D, the codon-optimized DNA sequence for the recombinant KRAS G12D (conjugated N-terminus His6-tag, TEV protease cleavage site and KRAS G12D residues 1-169 (SEQ ID NO: 3))was synthesized by GeneArt Technology (Life Technologies, Carlsbad, CA, US). The construct was subcloned into the expression vector pET28a and transformed into Escherichia coli BL21 (DE3) strains (Novagen, Madison, WI, US).
The transformed strain was cultivated in 2 L Luria Broth medium with 25 μg/mL kanamycin at a temperature of 37° C. to a density of 0.6 (OD600), then induced for expression with […] IPTG and further cultivated for 4 h. The cell pellet was resuspended in ice-cold lysis buffer containing 50 mM Tris-HCl (pH 7.5), 200 mM NaCl, and 100 μM TCEP (tris(2-carboxyethyl)phosphine).
After sonication, the disrupted debris was removed by centrifugation. The supernatant was applied on to Ni-NTA affinity gels, and the recombinant human KRAS (G12D) eluted fraction was collected. The buffer of the collected fraction was exchanged to the buffer containing 50 mM Tris-HCl (pH 7.5), 200 mM NaCl, 10% Glycerol, and 5 mM DTT by PD-10 column (GE-Healthcare, Chicago, IL, US).
To prepare the cleaved recombinant SOS1, the codon optimized DNA sequences for the recombinant SOS1 (residues 564-1049 with a conjugated N-terminus His6-tag and TEV protease cleavage site (SEQ ID NO: 4)) was synthesized by GeneArt Technology (Life Technologies). The construct was subcloned into the expression vector pET28a and transformed into Escherichia coli BL21 (DE3) strains (Novagen, Madison, WI, USA).
The transformed strain was cultivated in 2 L Terrific Broth medium with 25 μg/mL kanamycin at a temperature of 37° C. to a density of 0.8 (OD600), then shifted to a temperature of 16° C., induced for expression with […] IPTG, and further cultivated for 16 h. The cell pellet was resuspended in ice-cold lysis buffer containing 50 mM Tris-HCl (pH 7.5), 200 mM NaCl, and 100 μM TCEP.
After sonication, the disrupted debris was removed by centrifugation. The supernatant was applied on to Ni-NTA affinity gels, and the recombinant human SOS1 eluted fraction was collected. Then, His6-tagged TEV protease was added to the collected fraction, dialyzed with the ice-cold lysis buffer for 16 h at a temperature of 4° C., and applied on to Ni-NTA affinity gels. The flow-through fraction containing the tag-cleavaged recombinant human SOS1 was collected. The buffer of the collected fraction was exchanged to the buffer containing 50 mM Tris-HCl (pH 7.5), 200 mM NaCl, 10% Glycerol, and 5 mM DTT by PD-10 column (GE-Healthcare).
To prepare BODIPY FL (fluorescent dye) GDP-bound KRAS G12D protein, 50 μM KRAS G12D protein was incubated with 0.5 mM BODIPY FL GDP in a loading buffer (20 mM Tris-HCl (pH 7.5), 50 mM NaCl, 1 mM DTT and 2.5 mM EDTA) for 1 hour on ice. After the incubation, MgCl2 was added to a final concentration of 10 mM, followed by incubation at room temperature for 30 minutes.
The mixture was allowed to pass through a NAP-5 column to remove free nucleotides and purified BODIPY FL GDP-bound KRAS G12D protein was used for compound evaluation.
For the measurement of the inhibitory activity of compounds on GDP-GTP exchange rate of recombinant KRAS G12D, BODIPY FL GDP-bound KRAS G12D protein was incubated with various concentrations of compound in a reaction buffer (20 mM Tris-HCl (pH 7.5), 100 mM NaCl, 1 mM MgCl2, 2 mM DTT, 0.1% Tween 20) at 25° C. for 1 hour. […]

Sequence of KRAS G12D (P01116 other isoform, or with tags, fused parts or gaps G12D (already in the parent)): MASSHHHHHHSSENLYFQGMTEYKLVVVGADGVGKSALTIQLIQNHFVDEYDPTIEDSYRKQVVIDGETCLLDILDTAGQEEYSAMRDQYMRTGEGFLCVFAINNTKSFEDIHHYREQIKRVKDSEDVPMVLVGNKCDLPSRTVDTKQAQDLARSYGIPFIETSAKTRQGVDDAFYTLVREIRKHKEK

SMILES | IC50 [1] | IC50 (KRAS G12D)
CN(C)[C@@H]1CC[C@@H]1COc1nc(N2CC3CCC(C2)N3)c2ccc(-c3cc(O)cc4ccccc34)c(F)c2n1 (relative stereo) [Example 17, 4-(4-(3,8-diazabicyclo[3.2.1]octan-3-yl)-2-((cis-2-(dimethylamino)cyclobutyl)methoxy)-8-fluoroquinazolin-7-yl)naphthalen-2-ol] | 1290 nM | 14.6 nM
Oc1cc(N2CCc3c(nc(OCC4(CN5CC[C@@H](F)C5)CC4)nc3N3CC4CCC(C3)N4)C2)c2c(I)cccc2c1 [Example 8, 4-(4-(3,8-diazabicyclo[3.2.1]octan-3-yl)-2-((1-(((R)-3-fluoropyrrolidin-1-yl)methyl)cyclopropyl)methoxy)-5,8-dihydropyrido[3,4-d]pyrimidin-7(6H)-yl)-5-iodonaphthalen-2-ol] | 470 nM | 0.9 nM
CN(C)CC1(COc2nc3c(c(N4CC5CCC(C4)N5)n2)CCN(c2cccc4cccc(Br)c24)C3)CC1(F)F (stereo not shown) [Example 29, 1-(1-(((4-(3,8-diazabicyclo[3.2.1]octan-3-yl)-7-(8-bromonaphthalen-1-yl)-5,6,7,8-tetrahydropyrido[3,4-d]pyrimidin-2-yl)oxy)methyl)-2,2-difluorocyclopropyl)-N,N-dimethylmethanamine] | 1260 nM | 37.8 nM
O=C(c1cc(O)cc2cccc(I)c12)N1Cc2nc(OCC3(CN4CC[C@@H](F)C4)CC3)nc(N3CC4CCC(C3)N4)c2C1 [Example 12, (4-(3,8-diazabicyclo[3.2.1]octan-3-yl)-2-((1-(((R)-3-fluoropyrrolidin-1-yl)methyl)cyclopropyl)methoxy)-5,7-dihydro-6H-pyrrolo[3,4-d]pyrimidin-6-yl) (3-hydroxy-8-iodonaphthalen-1-yl)methanone] | 8150 nM | 4.4 nM
Ic1cccc2cccc(N3CCc4c(nc(OCC5(CN6CCOCC6)CC5)nc4N4CC5CCC(C4)N5)C3)c12 [Example 25, 4-((1-(((4-(3,8-diazabicyclo[3.2.1]octan-3-yl)-7-(8-iodonaphthalen-1-yl)-5,6,7,8-tetrahydropyrido[3,4-d]pyrimidin-2-yl)oxy)methyl)cyclopropyl)methyl)morpholine] |  | 39.8 nM
Oc1cc(N2CCc3c(nc(OCC4(CN5CCOCC5)CC4)nc3N3CC4CCC(C3)N4)C2)c2c(I)cccc2c1 [Example 9, 4-(4-(3,8-diazabicyclo[3.2.1]octan-3-yl)-2-((1-(morpholinomethyl)cyclopropyl)methoxy)-5,8-dihydropyrido[3,4-d]pyrimidin-7(6H)-yl)-5-iodonaphthalen-2-ol] | 350 nM | 0.7 nM
CN1CCC[C@H]1COc1nc2c(c(N3CC4CCC(C3)N4)n1)CCN(c1cc(O)cc3cccc(Br)c13)C2 [Example 31, 4-(4-(3,8-diazabicyclo[3.2.1]octan-3-yl)-2-(((S)-1-methylpyrrolidin-2-yl)methoxy)-5,8-dihydropyrido[3,4-d]pyrimidin-7(6H)-yl)-5-bromonaphthalen-2-ol] | 1950 nM | 17.7 nM
CN(C)CC1(COc2nc3c(c(N4CC5CCC(C4)N5)n2)CCN(c2cc(O)cc4cccc(Br)c24)C3)CC1(C)C (stereo not shown) [Example 30, 4-(4-(3,8-diazabicyclo[3.2.1]octan-3-yl)-2-((1-((dimethylamino)methyl)-2,2-dimethylcyclopropyl)methoxy)-5,8-dihydropyrido[3,4-d]pyrimidin-7(6H)-yl)-5-bromonaphthalen-2-ol] | 1380 nM | 11.7 nM
CN(C)CC1(COc2nc3c(c(N4CC5CCC(C4)N5)n2)COC(c2cc(O)cc4cccc(Br)c24)C3)CC1 (stereo not shown) [Example 37, 4-(4-(3,8-diazabicyclo[3.2.1]octan-3-yl)-2-((1-((dimethylamino)methyl)cyclopropyl)methoxy)-7,8-dihydro-5H-pyrano[4,3-d]pyrimidin-7-yl)-5-bromonaphthalen-2-ol] | 2940 nM | 9.6 nM
C#Cc1cccc2cc(O)cc(C3Cc4nc(OCC5(CN6CCOCC6)CC5)nc(N5CC6CCC(C5)N6)c4CO3)c12 (stereo not shown) [Example 33, 4-(4-(3,8-diazabicyclo[3.2.1]octan-3-yl)-2-((1-(morpholinomethyl)cyclopropyl)methoxy)-7,8-dihydro-5H-pyrano[4,3-d]pyrimidin-7-yl)-5-ethynylnaphthalen-2-ol] | 1270 nM | 11.3 nM
CN(C)CC1(COc2nc3c(c(N4CC5CCC(C4)N5)n2)CCN(c2cc(O)cc4cccc(Br)c24)C3)CC1 [Example 1, 4-(4-(3,8-diazabicyclo[3.2.1]octan-3-yl)-2-((1-((dimethylamino)methyl)cyclopropyl)methoxy)-5,8-dihydropyrido[3,4-d]pyrimidin-7(6H)-yl)-5-bromonaphthalen-2-ol] | 1170 nM | 0.8 nM
CN(C)CC1(COc2nc3c(c(N4CC5CCC(C4)N5)n2)CCN(c2nc(N)cc4cccc(Br)c24)C3)CC1 [Example 22, 1-(4-(3,8-diazabicyclo[3.2.1]octan-3-yl)-2-((1-((dimethylamino)methyl)cyclopropyl)methoxy)-5,8-dihydropyrido[3,4-d]pyrimidin-7 (6H)-yl) -8-bromoisoquinolin-3-amine] | 4090 nM | 13 nM
Oc1cc(N2CCc3c(nc(OCC4(CN5CCOCC5)CC4)nc3N3CC4CCC(C3)N4)C2)c2c(Br)cccc2c1 [Example 3, 4-(4-(3,8-diazabicyclo[3.2.1]octan-3-yl)-2-((1-(morpholinomethyl)cyclopropyl)methoxy)-5,8-dihydropyrido[3,4-d]pyrimidin-7 (6H)-yl) -5-bromonaphthalen-2-ol] | 590 nM | 
CN1CCC[C@@H]1COc1nc2c(c(N3CC4CCC(C3)N4)n1)CCN(c1cc(O)cc3cccc(Br)c13)C2 [Example 26, 4-(4-(3,8-diazabicyclo[3.2.1]octan-3-yl)-2-(((R)-1-methylpyrrolidin-2-yl)methoxy)-5,8-dihydropyrido[3,4-d]pyrimidin-7(6H)-yl)-5-bromonaphthalen-2-ol] |  | 19.9 nM
